System: Caco-2 cells
Assay: Leucine permeability test using Caco-2 cells
Assay type: in vitro ADME, Human
Details: Caco-2 insert wells, luminal to basolateral side, culture two hours, L-leucine 0.131 mg/mL, HPLC
Protocol: To assess the action of promoting free amino acid absorption of a dark-green vegetable, leucine permeability was measured by a test using Caco-2 cells. The following materials were used as test substances. • (1) As a dark-green vegetable, crushed powder of young barley grass (containing 43% by weight of dietary fiber; manufactured by TOYO SHINYAKU Co., Ltd.) which was obtained by washing grass harvested before heading, then cutting, drying, and then crushing was used. The crushed powder of young barley grass in an amount of 24 mg was put into a tube, and after adding 1 mL of a buffer, the mixture was vortexed. Then, the supernatant was collected through centrifugation at 15,000×g for five minutes at room temperature. […] When the medium was changed before the addition of the samples, the medium outside the insert wells (the wells at the basolateral side) was replaced with 1000 μl of 10% FBS-DMEM, and the medium inside the insert wells (the wells at the luminal side) was replaced with 350 μl of 10% FBS-DMEM. • (5) The electrical resistance values were measured with Millicell ERS-2, and the wells having a value of 1000Ω or more were used. […] The leucine concentrations of the obtained concentrated liquids were measured with high performance liquid chromatography. The measurement results were applied to the equation below, and thus the leucine permeability was calculated. […]

With `CC(C)C[C@H](N)C(=O)O` [Comparative Example 1, L-leucine] the “Leucine Permeability (%)” value was 1.32%.
